The results in this text go back to PubChem BioAssay (NCI).

Among the test systems are HCT-116 colon; HOP-92 NSCLC; OVCAR-4 ovarian; OVCAR-8 ovarian; SNB-19 CNS; TK-10 renal; U251 CNS; UO-31 renal; HS 578T breast; MCF7 breast.
Holding throughout (test): DTP human tumour cell line panel, 48 h

“And” between values parts separate entries of the source, which are not always exact repeats. Identical values can stand only once.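 In this assay, cells in 96-well plates receive the compound at five concentrations for 48 hours. Endpoints are linearly interpolated between the surrounding concentrations. GI50 marks 50% less growth. The concentration for full growth arrest is given as TGI.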

By TGI is commonly meant the concentration at which net growth stops. Higher therefore signals less potent growth arrest. As for `BrC/C=C/C[P+](c1ccccc1)(c1ccccc1)c1ccccc1`, the concentration for total growth inhibition (TGI) is above 100 µM in the assay on HCT-116 colon; 36.1 µM with HOP-92 NSCLC; above 100 µM in the assay on OVCAR-4 ovarian; above 100 µM with OVCAR-8 ovarian; above 100 µM in the assay with SNB-19 CNS; 42 µM in the assay with TK-10 renal. Further, the results for the total growth inhibition concentration (TGI) with U251 CNS and in the assay on UO-31 renal were 87 µM and above 100 µM, respectively.

With `CC[C@H]1CN2CCc3cc(OC)c(OC)cc3[C@@H]2C[C@@H]1C[C@H]1NCCc2cc(OC)c(OC)cc21`, the concentration for total growth inhibition (TGI) in the assay on HCT-116 colon was 0.0805 µM and 0.153 µM; in the assay on HOP-92 NSCLC, 0.196 µM and 0.0779 µM; with HS 578T breast it was 0.0665 µM; in the assay on OVCAR-4 ovarian, 0.0541 µM and 0.0117 µM; in the assay on OVCAR-8 ovarian, 0.532 µM and 1.09 µM; with TK-10 renal, 0.0784 µM and 0.309 µM. Besides, the concentration for total growth inhibition (TGI) in the assay with UO-31 renal was 0.242 µM and 0.978 µM.

Consider `CS(=O)(=O)OCCn1c(=O)n(CCOS(C)(=O)=O)c(=O)n(CCOS(C)(=O)=O)c1=O`, for which the TGI with HCT-116 colon, with MCF7 breast, in the assay with OVCAR-4 ovarian, with OVCAR-8 ovarian, with SNB-19 CNS and with TK-10 renal was above 100 µM in each case. Also, the TGI with U251 CNS and in the assay on UO-31 renal was above 100 µM in each case.

Consider `Cc1cc2[nH]c3[nH]c(=O)[nH]c(=O)c3c2cc1C`, for which the concentration for total growth inhibition (TGI) in the assay on HCT-116 colon, with HOP-92 NSCLC, in the assay with HS 578T breast, in the assay with MCF7 breast, in the assay on OVCAR-8 ovarian and with SNB-19 CNS was above 100 µM in each case. The TGI with TK-10 renal and in the assay on UO-31 renal was above 100 µM throughout.

With `CC(=O)O[C@]12CCCCCC1C1(O)C(O)CCC[C@H]12` (stereo not given in full), the concentration for total growth inhibition (TGI) in the assay on HCT-116 colon, with OVCAR-4 ovarian, in the assay with OVCAR-8 ovarian, in the assay on SNB-19 CNS, in the assay with TK-10 renal and with U251 CNS was above 100 µM each time. Besides, in the assay on UO-31 renal, the TGI was above 100 µM.

As for `COc1ccc(CC(O)CN2CCOCC2)cc1` (stereo not given), the TGI in the assay on HCT-116 colon, with HOP-92 NSCLC, with HS 578T breast, in the assay with OVCAR-4 ovarian, in the assay on OVCAR-8 ovarian and in the assay on SNB-19 CNS was above 100 µM each time. Also, the TGI in the assay on TK-10 renal, in the assay on U251 CNS and in the assay with UO-31 renal was above 100 µM throughout.

In the case of `O=C(CCCN1CCC2(CC1)CC(=O)N(N1CCOCC1)C2=O)c1ccccc1`, the total growth inhibition concentration (TGI) in the assay on HCT-116 colon, with MCF7 breast, in the assay on OVCAR-8 ovarian, with SNB-19 CNS, in the assay with TK-10 renal and with U251 CNS was above 100 µM in each case. Moreover, the total growth inhibition concentration (TGI) in the assay with UO-31 renal was above 100 µM.

Take `O=C(NC(Cc1ccc(I)cc1)C(=O)O)c1ccc(I)cc1` (stereo not given): the TGI in the assay with HCT-116 colon, in the assay with HOP-92 NSCLC, in the assay with MCF7 breast, in the assay on OVCAR-4 ovarian, with OVCAR-8 ovarian and in the assay with SNB-19 CNS was above 100 µM throughout. In addition, the total growth inhibition concentration (TGI) with U251 CNS is above 100 µM; in the assay on UO-31 renal, above 36.6 µM.

As for `COCOc1ccc(Cn2c(=O)n(C)c(=O)c3c2ncn3C)cc1[N+](=O)[O-]`, the TGI in the assay with HCT-116 colon, with OVCAR-8 ovarian, in the assay on SNB-19 CNS, in the assay on TK-10 renal, with U251 CNS and with UO-31 renal was above 100 µM each time.

As to `CCOC(=N)n1c(=O)n(C2=NCCN2)c2ccccc21`, the TGI with HCT-116 colon, with HOP-92 NSCLC, with MCF7 breast, in the assay with OVCAR-4 ovarian, with OVCAR-8 ovarian and with SNB-19 CNS was above 100 µM each time. For the same compound, the TGI with TK-10 renal, in the assay on U251 CNS and in the assay with UO-31 renal was above 100 µM in each case.

The term GI50 denotes the concentration at which growth is held to half of that of the control. As to `COc1cc([N+](=O)[O-])c(OC)cc1-c1nc2sc(Cl)cn2c1/C=N/Nc1ccccn1`, the GI50 is 16.8 µM with HS 578T breast; 11.1 µM in the assay on MCF7 breast; 17.3 µM with OVCAR-8 ovarian; above 50 µM with SNB-19 CNS; 15.6 µM in the assay on TK-10 renal; 7.65 µM with U251 CNS. For the same compound, the GI50 in the assay with UO-31 renal is above 50 µM. In addition, the TGI is above 50 µM in the assay on HS 578T breast; 32 µM with MCF7 breast; above 50 µM in the assay with OVCAR-8 ovarian; above 50 µM with SNB-19 CNS; above 50 µM with TK-10 renal; 14.3 µM in the assay on U251 CNS. Besides, the concentration for total growth inhibition (TGI) in the assay with UO-31 renal is above 50 µM.

As to `Cc1c2c(n(CCc3ccc(Cl)cc3)c1C)NN=C(C#N)S2(=O)=O`, the TGI with HCT-116 colon, in the assay on HS 578T breast, with MCF7 breast, with OVCAR-4 ovarian, with SNB-19 CNS and with TK-10 renal was above 100 µM throughout. Moreover, the TGI in the assay with U251 CNS and with UO-31 renal was above 100 µM in each case.

For the compound `CC12CC(=O)C3C(C(=O)C1)C32C` (stereo not given), the TGI in the assay on HCT-116 colon, in the assay with MCF7 breast, with OVCAR-4 ovarian, with OVCAR-8 ovarian, with SNB-19 CNS and with TK-10 renal was above 100 µM each time. In addition, the TGI with U251 CNS and in the assay on UO-31 renal was above 100 µM each time.

With `CCCCC1c2c([nH]c3ccccc23)C2C(=O)N(c3ccc(OC)cc3)C(=O)C2C1CCC` (stereo not given), the TGI in the assay with HCT-116 colon is 7.56 µM; in the assay with HOP-92 NSCLC, 7.86 µM; in the assay on HS 578T breast it was 4.81 µM; in the assay with OVCAR-4 ovarian, above 10 µM; with OVCAR-8 ovarian it was 8.24 µM; in the assay with SNB-19 CNS it was above 10 µM. For the same compound, the TGI in the assay with TK-10 renal, in the assay with U251 CNS and in the assay with UO-31 renal was above 10 µM throughout.

`CC(C(=O)n1nnc2ccccc21)N(c1ccccc1)c1ccccc1` (stereo not given): the TGI in the assay on HCT-116 colon, in the assay on OVCAR-8 ovarian, in the assay with SNB-19 CNS, with TK-10 renal, in the assay with U251 CNS and with UO-31 renal was above 100 µM each time.

`N#CC(C#N)=CNC(=S)c1ccncc1`: the TGI in the assay on HCT-116 colon, in the assay on HS 578T breast, with MCF7 breast, with OVCAR-4 ovarian, in the assay on OVCAR-8 ovarian and with SNB-19 CNS was above 100 µM in each case. In addition, the total growth inhibition concentration (TGI) with U251 CNS is above 100 µM; in the assay on UO-31 renal it was 52.8 µM.
